How the values were obtained:
[1] = Dissolution in ethanol, amorphous vs crystalline form; format: physicochemical; conditions: without stirring
Method: The dissolution profile of the substance in amorphous form was also determined, and compared with that of the substance in crystalline form.

[2] = Water solubility in dissolution tester (distilled water, 37° C., 100 rpm, spectrophotometric analysis); format: physicochemical; conditions: 37° C.±0.5° C.
Method: Moreover, with regard to water solubility, after conditioning a dissolution tester (Pharma Test Type PTW S III s/n 5390) using distilled water at a temperature of 37° C.±0.5° C. at a speed of 100 rpm, four dissolutions were carried out, in each of which the first three vessels of the dissolution tester were used for the substance in crystalline form and the last three for the substance in amorphous form.
10 ml of the solute were withdrawn from each vessel after 15 minutes of stirring; the withdrawn samples were filtered with 0.45 μm filters and subjected to spectophotometric analysis, repeating the operation after 30 and 60 minutes.

Structure (SMILES)	dissolution behaviour in ethanol [1]	dissolved percentage compared with that of the substance in crystalline form [2]	concentration of dissolved substance relative to that of the substance in amorphous form ([2]; after one hour of dissolution)
CO[C@H]1/C=C/O[C@@]2(C)Oc3c(C)c(O)c4c(O)c(c5c(nc6cc(C)ccn65)c4c3C2=O)NC(=O)/C(C)=C\C=C\[C@H](C)[C@H](O)[C@@H](C)[C@@H](O)[C@@H](C)[C@H](OC(C)=O)[C@@H]1C [amorphous form, Rifaximin]	easily dissolves in ethanol even without stirring	one order of magnitude greater	
CO[C@H]1/C=C/O[C@@]2(C)Oc3c(C)c(O)c4c(O)c(c5c(nc6cc(C)ccn65)c4c3C2=O)NC(=O)/C(C)=C\C=C\[C@H](C)[C@H](O)[C@@H](C)[C@@H](O)[C@@H](C)[C@H](OC(C)=O)[C@@H]1C [crystalline form, Rifaximin]	less wettable		about 7%
